Experimental data reported in patent US5830909A (American Cyanamid Company, priority 1996, dated 1998).
Where a name gives a salt, the structure may show the parent alone.

Assays:
[1] = system: adipocyte AII receptor; assay: Epididymal adipocyte AII receptor binding (Bmax) after two weeks oral treatment; format: in vivo, rat; details: 4 rats/group, oral once daily for 2 weeks
Procedure: Body weight and food intake are monitored daily. At the end of two weeks, the rats are sacrificed and tissues are weighed. Adipocyte membranes are prepared by collagenase digestion, homogenization and centrfugation.
Binding is initiated by suspending the adipocyte membranes in 0.25% BSA buffer (bovine serum albumin, 50 mM Tris HCl, 5 mM MgCl2,pH 7.4) to a final concentration of 5 ug protein/10 ul buffer. […] The filters are placed in tubes, and radioactivity measured in a gamma scintillation counter programmed to correct for the half-life of the isotope. Using this experimental protocol, both the affinity (KD) and number of binding sites (Bmax) for angiotensin II on the adipocyte membrane can be calculated.

[2] = system: epididymal adipocytes; assay: Epididymal adipocyte cell volume after two weeks oral treatment; format: in vivo, rat; details: 4 rats/group, oral once daily for 2 weeks
Procedure: (§1) Body weight and food intake are monitored daily. At the end of two weeks, the rats are sacrificed and tissues are weighed. Adipocyte membranes are prepared by collagenase digestion, homogenization and centrfugation. […] Of the organs sampled, the combined largest relative and quantitative change in weight was in the adipose tissue.

[3] = format: in vivo, rat; details: 15 mg/kg once a day by gavage, two weeks
Procedure: as §1

[4] = target: T1, AII receptor (Rattus norvegicus, UniProt P25095); assay: Displacement of 125I[Sar,Ile]AII binding in rat epididymal fat cell membranes
T1 construct: adipose tissue from the epididymal and retroperitoneal depots is quickly excised; from tissue; host or cells: membranes of collagenase-isolated adipocytes from epididymal and retroperitoneal fat of male Sprague-Dawley rats
T1 sequence (P25095 1-359): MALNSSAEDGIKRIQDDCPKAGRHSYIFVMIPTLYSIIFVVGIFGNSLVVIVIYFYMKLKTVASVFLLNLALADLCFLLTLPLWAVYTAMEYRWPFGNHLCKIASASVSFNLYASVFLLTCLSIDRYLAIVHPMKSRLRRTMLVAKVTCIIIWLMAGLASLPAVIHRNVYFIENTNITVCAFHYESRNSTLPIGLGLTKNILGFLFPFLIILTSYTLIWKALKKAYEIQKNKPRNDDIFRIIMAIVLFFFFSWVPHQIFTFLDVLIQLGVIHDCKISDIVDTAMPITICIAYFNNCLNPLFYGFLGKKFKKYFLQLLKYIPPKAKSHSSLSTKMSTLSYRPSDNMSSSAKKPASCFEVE
Excerpt: The experimental design involves determining the binding characteristics of adipocyte membranes harvested from two different anatomic sites at three different ages. Male Sprague-Dawley rats (Charles River Laboratories, Wilmington, Mass.) are used at 40, 70 and 100 days of age. Rats are killed by carbon dioxide inhalation on the morning of the experiment, and adipose tissue from the epididymal and retroperitoneal depots is quickly excised and placed in cold saline. The spermatic artery and vein are removed from the epididymal fat, and brown fat deposits are dissected away from the retroperitoneal depot. The adipose tissue is weighed, minced into small pieces, and approximately 10 g each transferred to a flask containing 25 ml of Krebs-Ringer-bicarbonate buffer (KRB), 6 mM glucose and 50 mg of collagenase, pH 7.4. […] Intact adipocytes dissociated from the tissue pass freely into waiting tubes, while the undigested tissue is trapped on the screen. The tubes containing the adipocytes are washed an additional 4× with 20 ml each of cold Tris buffer (10 mM Tris HCl, pH 8.0) by first allowing the adipocytes to separate from the digestion medium by flotation, removing the infranatant through polyethylene tubing attached to a syringe, resuspending the cells in the Tris buffer, and repeating this procedure. Adipocyte membranes used for binding studies are prepared as follows. […] Following centrifugation, the fat cake and supernatant are carefully removed, and the pellet resuspended in 1 ml of Tris buffer. Protein content of the high speed pellet is determined, the resuspended protein is either assayed immediately or stored at -75° before binding assays are performed. […] The assay is initiated by the addition of the membrane protein, followed by incubation at 22° C. for 30 minutes in a slowly shaking water bath. Separation of bound from free radioactivity is achieved using any appropriate filtration apparatus. We use either a Millipore or Brandel model harvesting apparatus containing a Durapore or Whatman GF/B filter, followed by 6 additional rinses with 5 ml each of cold saline. The filters are placed in tubes, and radioactivity measured in a gamma scintillation counter programmed to correct for the half-life of the isotope. Using this experimental protocol, both the affinity (KD) and number of binding sites (Bmax) for angiotensin II on the adipocyte membrane can be calculated. The relative affinities of different anatomically distinct adipocyte membranes for a variety of peptide and nonpeptide antagonists can also be determined. […] Concentration ranges can be altered dependent upon the affinity of the particular antagonist for the fat cell membrane receptor.

[5] = target: T1, AII receptor; assay: Displacement of 125I[Sar,Ile]AII binding in rat retroperitoneal fat cell membranes
Excerpt: The experimental design involves determining the binding characteristics of adipocyte membranes harvested from two different anatomic sites at three different ages. Male Sprague-Dawley rats (Charles River Laboratories, Wilmington, Mass.) are used at 40, 70 and 100 days of age. Rats are killed by carbon dioxide inhalation on the morning of the experiment, and adipose tissue from the epididymal and retroperitoneal depots is quickly excised and placed in cold saline. The spermatic artery and vein are removed from the epididymal fat, and brown fat deposits are dissected away from the retroperitoneal depot. […] Protein content of the high speed pellet is determined, the resuspended protein is either assayed immediately or stored at -75° before binding assays are performed. […] Separation of bound from free radioactivity is achieved using any appropriate filtration apparatus. […] The filters are placed in tubes, and radioactivity measured in a gamma scintillation counter programmed to correct for the half-life of the isotope. Using this experimental protocol, both the affinity (KD) and number of binding sites (Bmax) for angiotensin II on the adipocyte membrane can be calculated. The relative affinities of different anatomically distinct adipocyte membranes for a variety of peptide and nonpeptide antagonists can also be determined. […]

| SMILES | Bmax, epididymal adipocyte AII receptor binding [1] | Adipocyte Cell Volume [2] | Avg. Daily Food Intake, % Change From Control [3] | Avg. Weight Gain, % Change From Control [3] | Epididymal Fat Weight, % Change From Control [3] | Final Body Weight, % Change From Control [3] | Retroperitoneal Fat Weight, % Change From Control [3] | Avg. Daily Food Intake ([3]; n = 6) | Avg. Weight Gain ([3]; n = 6) | Epididymal Fat Weight ([3]; n = 6) | Final Body Weight ([3]; n = 6) | Retroperitoneal Fat Weight ([3]; n = 6) | IC50 ([4]; Epididymal IC50 for displacement of 125I[Sar,Ile]AII binding, rat epididymal fat cell membranes (Table 8)) | IC50 [5] | IC50 ([4]; Inhibitory Constants (IC50) for displacement of 125I[Sar,Ile]AII binding, Epididymal, rat epididymal fat cell membranes, 1 nM radioligand, 1-4 assays) |
| --- | --- | --- | --- | --- | --- | --- | --- | --- | --- | --- | --- | --- | --- | --- | --- |
| CCCCc1nc2ccc([C@@]3(C)C[C@@H]4CCCN4O3)cc2c(=O)n1Cc1ccc(-c2ccccc2-c2nnn[nH]2)cc1 (racemic) [cis-(+/-)-2-butyl-6-(hexahydro-2-methylpyrrolo[1,2-b]isoxazol-2-yl)-3-[[2'-(1H-tetrazol-5-yl)[1,1-biphenyl]-4-yl]methyl]-4(3H)-quinazolinone sodium salt] | 31.8 fmole/mg protein | 187 p1 | -7% | -55% | -17% | -7% | -11% | 30.4 g | 25 g | 4.33 g | 424 g | 4.35 g | 0.0146 µM | – | – |
| Cc1cc(Cn2cnc3c2C[C@@H](C(=O)O)N(C(=O)C(c2ccccc2)c2ccccc2)C3)ccc1N(C)C [((S)-)-[[4-(di-methylamino)-3-methylphenyl]methyl-5-(diphenylacetyl)-4,5,6,7-tetrahydro-1H-imidazo[4,5-c]-pyridine-6-carboxylic acid, reference compound] | – | – | – | – | – | – | – | – | – | – | – | – | – | 242 µM | 173 µM |
